# Patent US7517998B2, “Non nucleoside reverse transcriptase inhibitors” (priority 2004, dated 2009)
# Molecular target: T1, K103NNY181C mutant reverse transcriptase (Human immunodeficiency virus type 1 group M subtype B, UniProt P04585, K690N/Y768C)
# T1 construct: mutations that occur in the reverse transcriptase segment of the pol gene
# Experiment: Reverse transcriptase enzymatic assay (PicoGreen), K103N/Y181C mutant RT
# Format: biochemical, HIV-1
# Settings: IC50 mut (nM), mutant (K103N/Y181C) reverse transcriptase, enzymatic assay of Example 24
# How it was run: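 HIV-1 RT (2.5 nM final) pre-incubated 15 min at room temperature with inhibitor, then reacted 50 min at 37 °C with poly rC 45 nM, dG15 4.5 nM, dGTP 3.6 μM in Tris/HCl pH 7.8, 1% DMSO. Final inhibitor 10 μM to 0.508 nM; EDTA-quenched, PicoGreen fluorescence read at 485/520 nm.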
row,Compound,IC50
1,CC(C)(C)c1ccc(-n2nnnc2SCC(=O)Nc2ccc(NC(=O)Cc3ccccc3[N+](=O)[O-])cc2Cl)c(Cl)c1 [Compound 7019],25 nM
2,C#CCCC(=O)Nc1ccc(NC(=O)CSc2nnnn2-c2ccc(C(C)(C)C)cc2Cl)c(Cl)c1 [Compound 7020],69 nM
3,CC(C)(C)c1ccc(-n2nnnc2SCC(=O)Nc2ccc(NC(=O)C3CCCC3)cc2Cl)c(Cl)c1 [Compound 7021],262 nM
4,CC(C)(C)c1ccc(-n2nnnc2SCC(=O)Nc2ccc(NC(=O)C3CCCCC3)cc2Cl)c(Cl)c1 [Compound 7022],629 nM
5,CC(C)(C)c1ccc(-n2nnnc2SCC(=O)Nc2ccc(NC(=O)CC3CCCC3)cc2Cl)c(Cl)c1 [Compound 7023],255 nM
6,CC(C)CCC(=O)Nc1ccc(NC(=O)CSc2nnnn2-c2ccc(C(C)(C)C)cc2Cl)c(Cl)c1 [Compound 7024],414 nM
7,CC(C)(C)c1ccc(-n2nnnc2SCC(=O)Nc2ccc(NC(=O)Cc3ccc([N+](=O)[O-])cc3)cc2Cl)c(Cl)c1 [Compound 7025],154 nM
8,CC(C)(C)c1ccc(-n2nnnc2SCC(=O)Nc2ccc(NC(=O)Cc3ccsc3)cc2Cl)c(Cl)c1 [Compound 7026],88 nM
9,CC(C)(C)c1ccc(-n2nnnc2SCC(=O)Nc2ccc(NC(=O)c3cccc(C(=O)O)c3)cc2Cl)c(Cl)c1 [Compound 7027],134 nM
10,CC(C)(C)c1ccc(-n2nnnc2SCC(=O)Nc2ccc(NC(=O)CCC(=O)O)cc2Cl)c(Cl)c1 [Compound 7028],123 nM
11,CC(C)(C)c1ccc(-n2nnnc2SCC(=O)Nc2ccc(NC(=O)c3ccc(C(=O)O)cc3)cc2Cl)c(Cl)c1 [Compound 7029],88 nM
12,CC(C)(C)c1ccc(-n2nnnc2SCC(=O)Nc2ccc(NC(=O)Cc3ccncc3)cc2Cl)c(Cl)c1 [Compound 7030],38 nM
13,CC(C)(C)c1ccc(-n2nnnc2SCC(=O)Nc2ccc(NC(=O)Cc3cccnc3)cc2Cl)c(Cl)c1 [Compound 7031],43 nM
14,CC(C)(C)c1ccc(-n2nnnc2SCC(=O)Nc2ccc(NC(=O)Cc3ccccn3)cc2Cl)c(Cl)c1 [Compound 7032],30 nM
15,CC(=O)NC(C(=O)Nc1ccc(NC(=O)CSc2nnnn2-c2ccc(C(C)(C)C)cc2Cl)c(Cl)c1)c1ccccc1 (stereo not drawn) [Compound 7033],21.5 nM
16,CC(C)(C)c1ccc(-n2nnnc2SCC(=O)Nc2ccc(NC(=O)Cc3cccc4occc34)cc2Cl)c(Cl)c1 [Compound 7034],201 nM
17,CC(C)(C)c1ccc(-n2nnnc2SCC(=O)Nc2ccc(NC(=O)Cc3ccccc3Cl)cc2Cl)c(Cl)c1 [Compound 7035],100 nM
18,CC(C)(C)c1ccc(-n2nnnc2SCC(=O)Nc2ccc(NC(=O)Cc3c(Cl)cccc3Cl)cc2Cl)c(Cl)c1 [Compound 7036],712 nM
19,CN(C)c1ccc(CC(=O)Nc2ccc(NC(=O)CSc3nnnn3-c3ccc(C(C)(C)C)cc3Cl)c(Cl)c2)cc1 [Compound 7037],236 nM
20,CC(C)(C)c1ccc(-n2nnnc2SCC(=O)Nc2ccc(NC(=O)CCc3ccccc3)cc2Cl)c(Cl)c1 [Compound 7038],860 nM
21,COC(C(=O)Nc1ccc(NC(=O)CSc2nnnn2-c2ccc(C(C)(C)C)cc2Cl)c(Cl)c1)c1ccccc1 (stereo not drawn) [Compound 7039],89.5 nM
22,CC(C)(C)c1ccc(-n2nnnc2SCC(=O)Nc2ccc(NC(=O)Cn3cnnn3)cc2Cl)c(Cl)c1 [Compound 7040],42.5 nM
23,CC(C)(C)c1ccc(-n2nnnc2SCC(=O)Nc2ccc(NC(=O)C(C)(C)c3ccccc3)cc2Cl)c(Cl)c1 [Compound 7041],337 nM
24,CC(C)(C)c1ccc(-n2nnnc2SCC(=O)Nc2ccc(NC(=O)Cc3ccccc3O)cc2Cl)c(Cl)c1 [Compound 7042],27 nM
25,CC(C)(C)c1ccc(-n2nnnc2SCC(=O)Nc2ccc(NC(=O)Cc3c[nH]c4ccccc34)cc2Cl)c(Cl)c1 [Compound 7043],145 nM
26,CC(C(=O)Nc1ccc(NC(=O)CSc2nnnn2-c2ccc(C(C)(C)C)cc2Cl)c(Cl)c1)c1ccccc1 (stereo not drawn) [Compound 7044],335 nM
27,CC(C)(C)c1ccc(-n2nnnc2SCC(=O)Nc2ccc(NC(=O)Cc3ccccc3C(F)(F)F)cc2Cl)c(Cl)c1 [Compound 7045],432 nM
28,CC(C)(C)c1ccc(-n2nnnc2SCC(=O)Nc2ccc(NC(=O)Cc3cc[n+]([O-])cc3)cc2Cl)c(Cl)c1 [Compound 7046],140 nM
29,CC(C)(C)c1ccc(-n2nnnc2SCC(=O)Nc2ccc(NC(=O)Cc3cccc[n+]3[O-])cc2Cl)c(Cl)c1 [Compound 7047],43.5 nM
30,CC(C)(C)c1ccc(-n2nnnc2SCC(=O)Nc2ccc(NC(=O)Cc3ccc[n+]([O-])c3)cc2Cl)c(Cl)c1 [Compound 7048],97 nM
